Laboratory results: patent US9309263B2, “Fused multi-cyclic sulfone compounds as inhibitors of beta-secretase and methods of use thereof” (AMGEN INC., priority 2013, dated 2016)
Read-outs that look alike come from different tables or passages of the source.

How the values were obtained:
[1] = target: Beta Secretase enzyme (BACE) (Homo sapiens, UniProt P56817); assay: In vitro enzymatic BACE FRET assay; format: biochemical; conditions: read-out: BACE1 FRET assay IC50
Experimental: In Vitro Enzymatic BACE FRET (Fluorescence Resonance Energy Transfer) Assay (Enzyme Assay Data in the Example Table I)
The assay buffer used in this screen is 0.05 M acetate, pH 4.2, 10% DMSO final, 100 uM genapol (which is a nonionic detergent, below its Critical Micelle Concentration). The Beta Secretase enzyme (0.2 nM) is pre-incubated for one hour with inhibitors, typically in about 1 uL of DMSO according to a serial dilution, are added thereto. This assay is effectively started by the addition of FRET substrate (50 nM) and the combination is incubated for one hour. The FRET assay is terminated with by addition of Tris buffer, which raises the pH to neutrality, and the fluorescence is determined. The FRET substrate is a peptide with commercially available fluorophore and quencher, on opposite sides of the BACE cleavage site. Proteolytic cleavage of the FRET substrate releases quenching of fluorescence (excitation 488 nm and […]).

[2] = system: Aβ 40 in conditioned medium of cells stably expressing Amyloid Precursor Protein (APP); assay: In vitro BACE cell-based assay (Aβ 40 sandwich ELISA); conditions: Homo sapiens, HEK293
Experimental: In Vitro BACE Cell-Based Assay
The cell-based assay measures inhibition or reduction of […] in conditioned medium of test compound treated cells expressing amyloid precursor protein.
Cells stably expressing Amyloid Precursor Protein (APP) were plated at a density of 40K cells/well in 96 well plates (Costar). The cells were cultivated for 24 hours at 37° C. and 5% CO2 in DMEM supplemented with 10% FBS. The test compounds were then added to cells in 10-point dose response concentrations with the starting concentration being either 100 μM or 10 μM. The compounds were diluted from stock solutions in DMSO and the final DMSO concentration of the test compounds on cells was 0.1%. After 24 h of incubation with the test compounds the supernatant conditioned media was collected and the Aβ 40 levels were determined using a sandwich ELISA. The IC50 of the compound was calculated from the percent of control or percent inhibition of Aβ 40 as a function of the concentration of the test compound.
The sandwich ELISA to detect Aβ 40 was performed in 96 well microtiter plates, which were pre-treated with goat anti-rabbit IgG (Pierce). The capture and detecting antibody pair that were used to detect Aβ 40 from cell supernatants were affinity purified pAb40 (Biosource) and biotinylated 6E10 (Signet Labs Inc.), respectively. The optimal concentration for the pAb40 antibody was 3 μg/ml in Superblock/TBS (Pierce) that was supplemented with 0.05% Tween 20 (Sigma). Optimal concentration for the detection antibody 6E10-biotinylated was 0.5 μg/ml in Superblock/TBS (Pierce) that had been supplemented with 2% normal goat serum and 2% normal mouse serum.
Cellular supernatants were incubated with the capture antibody for 3 h at 4° C., followed by 3 wash steps in TBS-tween (0.05%). The detecting antibody incubation was for 2 h at 4° C., again followed by the wash steps as described previously. The final readout of the ELISA is Time-Resolved Fluorescence (counts per minute) using Delfia reagents Streptavidin-Europium and Enhancement solutions (Perkin Elmer) and the Victor 2 multilabel counter (Perkin Elmer).

[3] = target: Cathepsin D (Cat D) (Homo sapiens, UniProt P07339); assay: In vitro enzymatic Cathepsin D (Cat D) FRET assay; format: biochemical; conditions: read-out: CatD IC50
Chain of Cathepsin D (Cat D) (P07339 65-412, species assumed): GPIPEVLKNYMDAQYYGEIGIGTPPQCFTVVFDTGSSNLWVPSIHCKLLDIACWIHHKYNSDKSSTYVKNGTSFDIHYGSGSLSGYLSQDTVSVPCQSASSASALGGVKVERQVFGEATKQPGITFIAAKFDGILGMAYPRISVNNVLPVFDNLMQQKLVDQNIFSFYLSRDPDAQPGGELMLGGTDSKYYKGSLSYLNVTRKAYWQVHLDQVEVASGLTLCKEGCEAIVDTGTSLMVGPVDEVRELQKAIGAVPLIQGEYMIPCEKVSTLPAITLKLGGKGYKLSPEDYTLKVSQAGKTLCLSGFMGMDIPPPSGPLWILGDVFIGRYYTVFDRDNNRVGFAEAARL
Experimental: In Vitro Enzymatic Cathepsin D (Cat D) FRET (Fluorescence Resonance Energy Transfer) Assay
Recombinant Cat D was expressed in CHO cells. The assay buffer for CathepsinD is 0.05 M citrate pH 3.5, 10% DMSO final, 5 mM CHAPS. The Cat D enzyme (9 nM) is pre-incubated for one hour with inhibitors, typically in about 1 uL of DMSO according to a serial dilution, is added thereto. The assays are effectively started by the addition of different FRET substrates (20 nM for Cat D) and the combination is incubated for one hour. The FRET assay is terminated with by addition of Tris buffer, which raises the pH to neutrality, and the fluorescence is determined. The FRET substrate is a peptide with commercially available fluorophore and quencher, on opposite sides of the BACE cleavage site. The Cat D substrate peptide sequence is based on sequence #1 of Table 1 from Gulnik et al. FEBS Letters v413 p 379-384 1997. Proteolytic cleavage of the FRET substrate releases quenching of fluorescence (Cat D excitation 500 nm and emission 580 nm). […]
See, for instance, examples 8, 12, 15, 16, 18, 21-23, 24, 25, 26, 29, 30, 32, 41-42, 45, 53, 54, 57, 63, 67-69, 72-74, 76, 79-81, 83 & 84 (to point to just a few; referring to data in Table 2). […] See, for instance, examples 8, 12, 15, 18, 21-23, 25, 29, 30, 32, 41-42, 45, 54, 57, 67-68, 72-73, 76, 80-81, 84, 86, 91-92 & 100 (to point out those from compound examples 1-100; and with reference to data in Table 2).

[4] = average IC50, in vitro enzymatic BACE FRET assay
[5] = average IC50, HEK cell assay, Aβ 40 readout

Chain of Beta Secretase enzyme (BACE) (P56817 46-501): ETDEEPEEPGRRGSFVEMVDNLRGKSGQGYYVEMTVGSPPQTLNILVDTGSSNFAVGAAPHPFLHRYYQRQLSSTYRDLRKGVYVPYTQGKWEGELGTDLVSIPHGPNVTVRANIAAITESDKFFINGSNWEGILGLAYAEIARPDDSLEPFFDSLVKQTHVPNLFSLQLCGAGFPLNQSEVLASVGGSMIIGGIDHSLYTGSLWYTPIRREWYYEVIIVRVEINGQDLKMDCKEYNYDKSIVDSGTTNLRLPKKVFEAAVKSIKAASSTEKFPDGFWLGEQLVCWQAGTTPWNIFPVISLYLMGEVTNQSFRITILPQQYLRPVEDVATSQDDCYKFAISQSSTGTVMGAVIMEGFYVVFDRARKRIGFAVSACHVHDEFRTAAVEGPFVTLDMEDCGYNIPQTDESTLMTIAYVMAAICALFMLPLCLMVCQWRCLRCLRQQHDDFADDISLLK

Cc1cc(Cl)cnc1C(=O)Nc1cnc2c(c1)[C@@]1(C)N=C(N)C3(CCC3)S(=O)(=O)[C@@H]1CCO2 [Example 59, N-((4a′R,11b′R)-2′-amino-11b′-methyl-4′,4′-dioxido-4a′,5′,6′,11b′-tetrahydrospiro[cyclobutane-1,3′-pyrido[3′,2′:6,7]oxepino[4,5-b][1,4]thiazin]-10′-yl)-5-chloro-3-methyl-2-pyridinecarboxamide]
IC50 ([1]; average IC50): 0.05 µM
IC50 ([2]; HEK cell, average IC50): 0.057 µM
IC50 [3]: > 400 µM

CC1(C)C[C@@H]2[C@](C)(N=C(N)C(C)(C)S2(=O)=O)c2cc(NC(=O)c3ncc(Cl)cc3Cl)ccc2O1 [Example 128, N-((4aR,11bR)-2-amino-3,3,6,6,11b-pentamethyl-4,4-dioxido-4a,5,6,11b-tetrahydro-3H-[1]benzoxepino[4,5-b][1,4]thiazin-10-yl)-3,5-dichloro-2-pyridinecarboxamide]
IC50 [1, 4]: 0.008 µM
IC50 [2, 5]: 0.003 µM
IC50 ([3]; Cathepsin D FRET assay): 593 µM

CC1(C)C[C@@H]2[C@](C)(N=C(N)C(C)(C)S2(=O)=O)c2cc(Nc3nccc4cc(C#N)cnc34)ccc2O1 [Example 112, 8-(((4aR,11bR)-2-amino-3,3,6,6,11b-pentamethyl-4,4-dioxido-4a,5,6,11b-tetrahydro-3H-[1]benzoxepino[4,5-b][1,4]thiazin-10-yl)amino)-1,7-naphthyridine-3-carbonitrile]
IC50 [1, 4]: 0.003 µM
IC50 [2, 5]: 0.002 µM
IC50 ([3]; Cathepsin D FRET assay): 316 µM

Cc1cc(Cl)cnc1C(=O)Nc1ccc2c(c1)[C@@]1(C)N=C(N)C(C)(C)S(=O)(=O)[C@@H]1C[C@@H](C)O2 [Example 180, N-((4aR,6R,11bR)-2-amino-3,3,6,11b-tetramethyl-4,4-dioxido-4a,5,6,11b-tetrahydro-3H-[1]benzoxepino[4,5-b][1,4]thiazin-10-yl)-5-chloro-3-methyl-2-pyridinecarboxamide]
IC50 ([1]; average IC50): 0.003 µM
IC50 ([2]; HEK cells, average IC50): 0.005 µM
IC50 [3]: 90.4 µM

Cc1nc(OCC(F)(F)F)cnc1C(=O)Nc1ccc2c(c1)[C@@]1(C)N=C(N)C(C)(C)S(=O)(=O)[C@@H]1CCO2 [Example 23, N-((4aR,11bR)-2-amino-3,3,11b-trimethyl-4,4-dioxido-4a,5,6,11b-tetrahydro-3H-[1]benzoxepino[4,5-b][1,4]thiazin-10-yl)-3-methyl-5-(2,2,2-trifluoroethoxy)-2-pyrazinecarboxamide]
IC50 ([1]; average IC50): 0.003 µM
IC50 ([2]; HEK cell, average IC50): 0.01 µM
IC50 [3]: 1400 µM

Cc1cc(C#N)cnc1C(=O)Nc1cnc2c(c1)[C@@]1(C)N=C(N)C3(CCC3)S(=O)(=O)[C@@H]1CCO2 [Example 62, N-((4a′R,11b′R)-2′-amino-11b′-methyl-4′,4′-dioxido-4a′,5′,6′,11b′-tetrahydrospiro[cyclobutane-1,3′-pyrido[3′,2′:6,7]oxepino[4,5-b][1,4]thiazin]-10′-yl)-5-cyano-3-methyl-2-pyridinecarboxamide]
IC50 ([1]; average IC50): 0.015 µM
IC50 ([2]; HEK cell, average IC50): 0.06 µM
IC50 [3]: > 400 µM

Cc1cc(Cl)cnc1C(=O)Nc1ccc2c(c1)[C@@]1(C)N=C(N)C(C)(C)S(=O)(=O)[C@H]1CC(C)(C)O2 [Example 184, N-((4aS,11bR)-2-amino-3,3,6,6,11b-pentamethyl-4,4-dioxido-4a,5,6,11b-tetrahydro-3H-[1]benzoxepino[4,5-b][1,4]thiazin-10-yl)-5-chloro-3-methyl-2-pyridinecarboxamide]
IC50 ([1]; average IC50): 0.008 µM
IC50 ([2]; HEK cells, average IC50): 0.004 µM
IC50 [3]: 403 µM

CC1(C)C(N)=N[C@]2(C)c3cc(NC(=O)c4ccc(OCC(F)F)cn4)ccc3OCC[C@H]2S1(=O)=O [Example 96, N-((4aR,11bR)-2-amino-3,3,11b-trimethyl-4,4-dioxido-4a,5,6,11b-tetrahydro-3H-[1]benzoxepino[4,5-b][1,4]thiazin-10-yl)-5-(2,2-difluoroethoxy)-2-pyridinecarboxamide]
IC50 [1, 4]: 0.033 µM
IC50 [2, 5]: 0.098 µM
IC50 ([3]; Cathepsin D FRET assay): 1180 µM

Cc1cc(Cl)cnc1C(=O)Nc1ccc2c(c1)[C@@]1(CF)N=C(N)C(C)(C)S(=O)(=O)[C@H]1CCO2 [Example 147, N-((4aS,11bS)-2-amino-11b-(fluoromethyl)-3,3-dimethyl-4,4-dioxido-4a,5,6,11b-tetrahydro-3H-[1]benzoxepino[4,5-b][1,4]thiazin-10-yl)-5-chloro-3-methyl-2-pyridinecarboxamide]
IC50 [1, 4]: 0.003 µM
IC50 [2, 5]: 0.009 µM
IC50 ([3]; Cathepsin D FRET assay): 1280 µM

C[C@H]1C[C@@H]2[C@](C)(N=C(N)C(C)(C)S2(=O)=O)c2cc(NC(=O)c3ncc(Cl)cc3CO)ccc2O1 [Example 130, N-((4aR,6S,11bR)-2-amino-3,3,6,11b-tetramethyl-4,4-dioxido-4a,5,6,11b-tetrahydro-3H-benzo[6,7]oxepino[4,5-b][1,4]thiazin-10-yl)-5-chloro-3-(hydroxymethyl)picolinamide]
IC50 [1, 4]: 0.003 µM
IC50 [2, 5]: 0.0008 µM
IC50 ([3]; Cathepsin D FRET assay): 44.8 µM

Cc1cc(Cl)cnc1C(=O)Nc1ccc2c(c1)[C@]1(C)N=C(N)C(C)(C)S(=O)(=O)[C@H]1CCO2 (racemic) [Example 4, N-((4aRS,11bRS)-2-amino-3,3,11b-trimethyl-4,4-dioxido-4a,5,6,11b-tetrahydro-3H-benzo[6,7]oxepino[4,5-b][1,4]thiazin-10-yl)-5-chloro-3-methylpicolinamide]
IC50 ([1]; average IC50): 0.004 µM
IC50 ([2]; HEK cell, average IC50): 0.01 µM
IC50 [3]: > 100 µM

CCCOc1cnc(C(=O)Nc2ccc3c(c2)[C@@]2(C)N=C(N)C(C)(C)S(=O)(=O)[C@@H]2C[C@H](C)O3)cn1 [Example 79, N-((4aR,6S,11bR)-2-amino-3,3,6,11b-tetramethyl-4,4-dioxido-4a,5,6,11b-tetrahydro-3H-[1]benzoxepino[4,5-b][1,4]thiazin-10-yl)-5-propoxy-2-pyrazinecarboxamide]
IC50 ([1]; average IC50): 0.005 µM
IC50 ([2]; HEK cell, average IC50): 0.016 µM
IC50 [3]: 841 µM

Cc1cc(Cl)cnc1C(=O)Nc1ccc2c(c1)[C@@]1(C)N=C(N)C(C)(C)S(=O)(=O)[C@H]1CCO2 [Example 6b, N-((4aS,11bR)-2-amino-3,3,11b-trimethyl-4,4-dioxido-4a,5,6,11b-tetrahydro-3H-benzo[6,7]oxepino[4,5-b][1,4]thiazin-10-yl)-5-chloro-3-methylpicolinamide]
IC50 ([1]; average IC50): 0.003 µM
IC50 ([2]; HEK cell, average IC50): 0.004 µM
IC50 [3]: > 100 µM

COc1cnc2c(Nc3cnc4c(c3)[C@@]3(C)N=C(N)C5(CCC5)S(=O)(=O)[C@@H]3CCO4)nccc2n1 [Example 60]
IC50 ([1]; average IC50): 0.037 µM
IC50 ([2]; HEK cell, average IC50): 0.135 µM
IC50 [3]: > 400 µM
